Data published in patent US5268361A, “Hydroxyazido derivatives and related compounds as renin inhibitors” (SRI International, priority 1991, dated 1993).

Assays:
[1] = animals; from cited publications; cited from earlier work
human kidney renin = target: T1, human kidney renin (Homo sapiens, UniProt P00797); assay: Human renin enzyme assay with angiotensin I radioimmunoassay; format: biochemical; conditions: angiotensinogen substrate, pH 6.0 maleate buffer, 37° C., 50% reduction in the release of angiotensin I
T1 construct: 0.24 mGU human kidney renin; from tissue; host or cells: human kidney
T1 sequence (P00797 67-406): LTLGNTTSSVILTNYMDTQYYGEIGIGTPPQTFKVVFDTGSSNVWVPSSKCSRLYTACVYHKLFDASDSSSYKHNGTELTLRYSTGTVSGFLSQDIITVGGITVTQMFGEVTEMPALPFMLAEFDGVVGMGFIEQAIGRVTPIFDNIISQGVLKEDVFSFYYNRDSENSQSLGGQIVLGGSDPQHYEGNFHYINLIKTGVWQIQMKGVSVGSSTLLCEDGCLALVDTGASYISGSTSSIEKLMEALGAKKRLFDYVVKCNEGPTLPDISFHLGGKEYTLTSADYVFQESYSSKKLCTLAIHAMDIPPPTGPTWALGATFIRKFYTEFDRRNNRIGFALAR
Experimental: a. Human Renin Enzyme Assay. The human renin enzyme assay described by Sham et al., J. Med. Chem. 31:284-295 (1988) was carried out by mixing 0.24 mGU human kidney renin, 0.21 αμM of angiotensinogen in 0.135 M, pH 6.0, maleate buffer containing 3 mM EDTA, 1.4 mM PMSF, and 0.44% BSA. The total assay volume was 100 μl. All inhibitors were dissolved in DMSO first and diluted with 0.5% BSA to give the appropriate concentrations for testing. The final DMSO concentration in the assay mixture was kept constant at 1%. […] For assay, 90 μl of the above-mentioned maleate buffer containing the renin and inhibitor was preincubated at 37° C. for 5 min and the reaction was continued for 10 additional min after adding 10 μl of substrate. The reaction was stopped by immersion of all tubes in a dry ice acetone-methanol bath. All samples were thawed to 0.4° C. and an aliquot from each tube was taken for the Angiotensin I RIA assay.
b. Angiotensin I Radioimmunoassay. A 100 μl portions of 5% BSA containing a small aliquot of the above enzyme mixture was mixed with 100 μl of angiotensin I [^125 I] (500 mCi/mg) in 0.1M Tris-acetate buffer, pH 7.4 (one part angiotensin I in 50 parts buffer), and 500 μl of antiserum (the lyophilized powder was reconstituted with 125 ml of 0.1M Tris-acetate buffer, pH 7.4). The mixture was incubated at 4° C. for 18 to 24 h. At the end of the incubation, 1.0 mL of charcoal suspension (600 mg of charcoal in 50 mL of 0.1M Tris-acetate buffer, pH 7.4) was pipetted into each tube. The charcoal suspension was stirred constantly during the transfer. The samples were mixed and then centrifuged at 3000×g for 15 min. The supernatants were transferred into properly numbered tubed for gamma counting.
A reagent blank was carried out with each assay. The blank tube contained 100 μl of 5% bovine serum albumin (BSA), 100 μl of angiotensin I [^125 I], and 500 μl of 0.1M Tris-acetate buffer.
A standard curve was prepared with each set of experiments by mixing various amounts (5 to 0.1 ng/ml) of angiotensin I in 0.1M Tris-acetate buffer containing 5% BSA and the same amounts of ^125 I-angiotensin I and antiserum as for the RIA assay. The tubes containing the standards were treated exactly like those containing the samples. The amount of angiotensin I produced by the enzyme in each sample was calculated using an angiotensin I standard curve.
The whole process of RIA was carried out at 0° to 4° C. to avoid deterioration of antiserum and angiotensin I. Only polystyrene tubes were used. Polystyrene tubes had shown no affinity for antibody under the assay conditions described above.
An IC50 was calculated for each inhibitor tested by conducting the assay in the presence of different concentrations of inhibitor. The inhibitor concentration that caused a 50% reduction in the release of angiotensin I when compared to control (no inhibitor) values was then calculated.

Cynomolgus monkeys = assay: In vivo efficacy: oral administration to Cynomolgus monkeys, blood pressure monitoring; conditions: salt-depleted, furosemide-pretreated male Cynomolgus monkeys; oral gavage 1.0 mg/kg
Experimental: b. In vivo efficacy: Oral activity of a number of the compounds of the invention was established by administration to Cynomolgus monkeys, a species known to be susceptible to the antihypertensive effect of renin inhibition. Two male monkeys, young adults approximately 3-6 kg at dosing, were tested over a six-week period. The animal room environment and photoperiod were controlled (temperature approximately 24° C., humidity 50±20%, 12 h light, 12 h dark), as was diet (low salt primate chow, plus discretionary supplements of fruit for at least 7 days prior to dosing). A diuretic (furosemide 1 mg/kg) was given daily by intravenous injection for 7 days prior to dosing.
The compounds of the invention were dissolved in 0.02 N HCl and prepared to the appropriate volume with sterile water. The pH of the solutions were adjusted to approximately 4.0 with 0.02 N NaOH. The solutions were then given orally by an oesophageal gavage at a dose level of 1.0 mg/kg, and a dose volume of 2 mL/kg body weight.
Prior to and following dosing, the animals were connected to an ECG and blood pressure monitor. Systolic, diastolic and mean blood pressure as well as heart rate were measured at 30 second intervals and recorded.

IC50 (human kidney renin) [nM]	Compound	Oral activity [1]	Reduction in blood pressure (Cynomolgus monkeys)
0.58	CC(C)C[C@H](N=[N+]=[N-])[C@H](O)[C@H](CC1CCCCC1)NC(=O)[C@H](Cc1c[nH]cn1)NC(=O)[C@H](Cc1ccccc1)NC(=O)N1CCOCC1 [Compound V-4, (4S, 5R, 6S)-4-Azido-7-cyclohexyl-5-hydroxy-2-methyl-6-[N^α -(N-(morpholino-N-carbonyl)L-phenylalanyl)-L-histidyl]aminoheptane]	–	–
1.7	CC(C)C[C@H](N=[N+]=[N-])[C@H](O)[C@H](CC1CCCCC1)NC(=O)[C@H](Cc1c[nH]cn1)NC(=O)[C@H](Cc1ccccc1)OC(=O)N1CCOCC1 [IV-7, (4S, 5R, 6S)-4-Azido-7-cyclohexyl-5-hydroxy-2-methyl-6-[N^α -(2S-(morpholino-N-carbonyloxy)-3-phenylpropionyl)-L-histidyl]aminoheptane]	–	Reduction in blood pressure was seen within approximately 1 to 6 hours
0.64	CC(C)C[C@H](N=[N+]=[N-])[C@H](O)[C@H](CC1CCCCC1)NC(=O)[C@H](Cc1c[nH]cn1)NC(=O)C(CC(=O)N1CCOCC1)Cc1ccccc1 (stereo partly drawn) [VI-6b, (4S, 5R, 6S)-4-Azido-6-[N^α -(2-benzyl-3-(morpholino-N-carbonyl)propionyl)-L-histidyl]amino-7-cyclohexyl-5-hydroxy-2-methylheptane]	–	–
5.1	CC(C)CC(N=[N+]=[N-])C(=O)C(CC1CCCCC1)NC(=O)[C@H](Cc1c[nH]cn1)NC(=O)[C@H](Cc1ccccc1)OC(=O)N1CCOCC1 (stereo partly drawn) [VII-2, 4-Azido-7-cyclohexyl-2-methyl-5-oxo-6-[N^α -(2S-(morpholino-N-carbonyloxy)-3-phenylpropionyl)-L-histidyl]amino heptane]	–	–

The remaining lines, values behind:

Compound	IC50 (human kidney renin) [nM]	Oral activity [1]	Reduction in blood pressure (Cynomolgus monkeys)
COc1ccc(C[C@H](NC(=O)CC(C)(C)N)C(=O)N[C@@H](Cc2cnc[nH]2)C(=O)N[C@@H](CC2CCCCC2)[C@@H](O)[C@@H](O)CC(C)C)cc1 [Compound A-64662]	–	orally active in animals	–
CC(C)CC(N=[N+]=[N-])C(O)[C@H](CC(C)C)NC(=O)[C@H](Cc1c[nH]cn1)NC(=O)[C@H](Cc1cccc2ccccc12)NC(=O)OCc1ccccc1 (stereo partly drawn) [Compound I-5b, 4-Azido-6-(S)-[N^α -[N-benzyloxycarbonyl-3-(1-naphthyl)-L-alanyl]-L-histidyl]-amino-2,8-dimethyl-5-nonanol]	190	–	–
CC(C)C[C@H](N=[N+]=[N-])[C@H](O)[C@H](CC1CCCCC1)NC(=O)[C@H](Cc1c[nH]cn1)NC(=O)[C@H](Cc1ccccc1)CS(=O)(=O)C(C)(C)C [Compound X-2b, (4S, 5R, 6S)-4-Azido-7-cyclohexyl-5-hydroxy-2-methyl-6-[N^α -[(S)-2-benzyl-3-(tert-butylsulfonyl)-pripionyl]-L-histidyl]aminoheptane]	0.006	–	Reduction in blood pressure was seen within approximately 1 to 6 hours
CC(C)C[C@H](N=[N+]=[N-])[C@H](O)[C@H](CC(C)C)NC(=O)[C@H](Cc1c[nH]cn1)NC(=O)[C@H](Cc1ccccc1)OC(=O)N1CCOCC1 [III-6, (4S, 5R, 6S)-4-Azido-5-hydroxy-2,8-dimethyl-6-[N^α -(2S-(morpholino-N-carbonyloxy)-3-phenylpropionyl)-L-histidyl]aminononane]	110	–	–
CC(C)C[C@H](N=[N+]=[N-])[C@H](O)[C@H](CC1CCCCC1)NC(=O)[C@H](Cc1c[nH]cn1)NC(=O)[C@H](Cc1ccccc1)NC(=O)CC(C)(C)N [IX-6]	5.4	–	–
CC(C)C[C@H](N=[N+]=[N-])[C@H](O)[C@H](CC1CCCCC1)NC(=O)[C@H](Cc1c[nH]cn1)NC(=O)/C(=C/c1ccccc1)CC(=O)N1CCOCC1 [VIII-3, (4S, 5R, 6S)-4-Azido-7-cyclohexyl-5-hydroxy-2-methyl-6-[N^α -[(E)-2-[(4-morphorinylcarbonyl)-methyl]cinnamyl]-L-histidyl]aminoheptane]	0.85	–	–
COCCOCCN(C)C(=O)C[C@@H](Cc1ccccc1)C(=O)N[C@@H](Cc1c[nH]cn1)C(=O)N[C@@H](CC1CCCCC1)[C@@H](O)[C@H](CC(C)C)N=[N+]=[N-] [XI-2]	0.008	–	–
